Two compounds from patent US8815774B2, “Herbicidal composition and method of use thereof” (Syngenta Crop Protection LLC, priority 2006, dated 2014) can be followed below.

What all share (assay type): in vivo
Assay [1] concerns Trifolium repens (white clover). The experiment in a line: Glasshouse trial, control of white clover, pre-emergence application. As to the method: (§1) A glasshouse trial was carried out. Large crabgrass seeds were sown into standard glasshouse potting mix (1:1 v/v Promix:Vero sand soil) contained in 10 cm square plastic pots. Treatments were replicated three times. Mesotrione (in the form Callisto® 480SE) was applied pre-emergence to large crabgrass (Digitaria sanguinalis) at either 12 g ai/ha or 24 g ai/ha with or without sulfentrazone (in the form Authority®). When used, sulfentrazone was applied at a rate of 140 g ai/ha or 280 g ai/ha. The adjuvant system was X-77 at 0.1% v/v in deionised water. 200 litres of herbicide/adjuvant system was used per hectare. General weed control was evaluated at 7 days after treatment (DAT). It is noted that all herbicides were applied at reduced field rates because herbicide effects are magnified in a glasshouse environment. Rates were chosen to give a 50 to 70% level of control with herbicides applied alone as this allows for detection of any synergistic effect when tank mixtures are used.
(§2) It is noted that control of large crabgrass with the higher rate of mesotrione alone was too high to allow for detection synergy when mesotrione was mixed with sulfentrazone. The lower rate of mesotrione was therefore used in this analysis. […] The results were evaluated using the Colby formula. The expected result for (A+B) is (A+B)−(A×B/100) where A and B are the ‘observed’ results for A and B on their own.
(§3) A glasshouse trial was set up as described in Example 1, except using carfentrazone instead of sulfentrazone, Trifolium repens (white clover) instead of large crabgrass, and different herbicide rates.

For assay [2] the test system is unchanged. The assay is described as follows: Glasshouse trial, control of white clover, post-emergence application. As to the method: as §1, §2, §3
A glasshouse trial was set up as described in Example 2, except using applying the mixture post emergence rather than pre-emergence.

For assay [3], the system named is large crabgrass (Digitaria sanguinalis). The assay is described as follows: Glasshouse trial, control of large crabgrass, pre-emergence application. The protocol:
as §1, with “used. It is noted that control of large crabgrass with the higher rate of mesotrione alone was too high to allow for detection synergy when mesotrione was mixed with sulfentrazone. The lower rate of mesotrione was therefore used in this analysis. […] The results were evaluated using the Colby formula. The expected result for (A+B) is (A+B)−(A×B/100) where A and B are the ‘observed’ results for A and B on their own.” for “used.”

Setting [4] is: carfentrazone 18 g ai/ha plus mesotrione 25 g ai/ha.
[5] abbreviates: carfentrazone 18 g ai/ha plus mesotrione 50 g ai/ha.
Where [6] appears, read: carfentrazone 36 g ai/ha plus mesotrione 25 g ai/ha.
Setting [7] is: carfentrazone 36 g ai/ha plus mesotrione 50 g ai/ha.
Where [8] appears, read: carfentrazone 18 g ai/ha plus mesotrione 100 g ai/ha.
Where [9] appears, read: carfentrazone 18 g ai/ha plus mesotrione 150 g ai/ha.
[10] abbreviates: carfentrazone 36 g ai/ha plus mesotrione 100 g ai/ha.
[11] abbreviates: carfentrazone 36 g ai/ha plus mesotrione 150 g ai/ha.

As for `Cc1nn(-c2cc(CC(Cl)C(=O)O)c(Cl)cc2F)c(=O)n1C(F)F` (centres unmarked) [Carfentrazone], in assay [1] (setting [4]), the “Actual control, Plus Mesotrione at 25 g ai/ha” value worked out at 55 and the “Expected control, Plus Mesotrione at 25 g ai/ha” value is given as 50. In assay [1] (setting [5]), the “Actual control, Plus Mesotrione at 50 g ai/ha” value worked out at 75 and the “Expected control, Plus Mesotrione at 50 g ai/ha” value was found to be 62. In addition, in assay [1] (setting [6]), the “Actual control, Plus Mesotrione at 25 g ai/ha” value was 73 and the “Expected control, Plus Mesotrione at 25 g ai/ha” value is 49. Moreover, in assay [1] (setting [7]), the “Actual control, Plus Mesotrione at 50 g ai/ha” value was 85 and the “Expected control, Plus Mesotrione at 50 g ai/ha” value was determined as 61. Besides, in assay [2] (setting [8]), the “Actual control, Plus Mesotrione at 100 g ai/ha” value is 70 and the “Expected control, Plus Mesotrione at 100 g ai/ha” value was 43. Further, in assay [2] (setting [9]), the “Actual control, Plus Mesotrione at 150 g ai/ha” value is 93 and the “Expected control, Plus Mesotrione at 150 g ai/ha” value is given as 65. Also, in assay [2] (setting [10]), the “Actual control, Plus Mesotrione at 100 g ai/ha” value turned out to be 72 and the “Expected control, Plus Mesotrione at 100 g ai/ha” value is given as 53. Further, in assay [2] (setting [11]), the “Actual control, Plus Mesotrione at 150 g ai/ha” value is given as 93 and the “Expected control, Plus Mesotrione at 150 g ai/ha” value worked out at 71.

As to `Cc1nn(-c2cc(NS(C)(=O)=O)c(Cl)cc2Cl)c(=O)n1C(F)F` [Sulfentrazone, 2′,4′-dichloro-5′-(4-difluoromethyl-4,5-dihydro-3-methyl-5-oxo-1H-1,2,4-triazol-1-yl)methanesulfonanilide], the “synergy (Colby formula and Student-Newman-Keuls multiple range test)” value in assay [3] (mesotrione 12 g ai/ha with sulfentrazone 140 g ai/ha) was “synergy was seen”. The “Expected control (Colby formula), Plus Mesotrione at 12 g ai/ha” value in assay [3] (sulfentrazone 140 g ai/ha plus mesotrione 12 g ai/ha, 7 DAT) is listed as 87.0. Also, the “Actual control, Plus Mesotrione at 12 g ai/ha” value in assay [3] (sulfentrazone 140 g ai/ha tank mixed with mesotrione 12 g ai/ha, 7 DAT) is reported as 100. Further, in assay [3] (sulfentrazone alone (lower rate, 140 g ai/ha), 7 DAT), the “control of large crabgrass, herbicide on its own” value worked out at 75%.
